# ChEMBL document CHEMBL4507319 (2021)
# Experiments:
# [1] = biological target: T1, Mitogen-activated protein kinase kinase kinase 7 (Homo sapiens) (UniProt O43318); conditions: Compound concentration 1000.0 nM
# T1 sequence (whole entry): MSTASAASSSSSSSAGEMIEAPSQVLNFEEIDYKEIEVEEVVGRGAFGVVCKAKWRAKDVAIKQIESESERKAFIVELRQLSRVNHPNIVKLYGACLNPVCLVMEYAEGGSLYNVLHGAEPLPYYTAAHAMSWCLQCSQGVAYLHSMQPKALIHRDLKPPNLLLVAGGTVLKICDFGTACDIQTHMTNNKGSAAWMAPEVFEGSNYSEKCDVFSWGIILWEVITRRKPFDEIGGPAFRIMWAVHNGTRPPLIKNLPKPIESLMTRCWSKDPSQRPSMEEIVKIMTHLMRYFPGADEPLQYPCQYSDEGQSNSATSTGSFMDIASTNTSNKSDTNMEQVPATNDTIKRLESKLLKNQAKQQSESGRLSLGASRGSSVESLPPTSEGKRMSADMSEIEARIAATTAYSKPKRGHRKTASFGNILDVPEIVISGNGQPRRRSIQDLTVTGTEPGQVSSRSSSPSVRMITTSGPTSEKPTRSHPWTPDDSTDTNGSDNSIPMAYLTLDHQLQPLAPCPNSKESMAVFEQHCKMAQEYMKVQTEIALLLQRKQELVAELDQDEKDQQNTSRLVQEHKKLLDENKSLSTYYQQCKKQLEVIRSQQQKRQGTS
# [2] = biological target: Beta-1 adrenergic receptor (Homo sapiens) (UniProt P08588); conditions: Compound concentration 10.0 uM
# Beta-1 adrenergic receptor (Homo sapiens), sequence (P08588 whole entry, looked up): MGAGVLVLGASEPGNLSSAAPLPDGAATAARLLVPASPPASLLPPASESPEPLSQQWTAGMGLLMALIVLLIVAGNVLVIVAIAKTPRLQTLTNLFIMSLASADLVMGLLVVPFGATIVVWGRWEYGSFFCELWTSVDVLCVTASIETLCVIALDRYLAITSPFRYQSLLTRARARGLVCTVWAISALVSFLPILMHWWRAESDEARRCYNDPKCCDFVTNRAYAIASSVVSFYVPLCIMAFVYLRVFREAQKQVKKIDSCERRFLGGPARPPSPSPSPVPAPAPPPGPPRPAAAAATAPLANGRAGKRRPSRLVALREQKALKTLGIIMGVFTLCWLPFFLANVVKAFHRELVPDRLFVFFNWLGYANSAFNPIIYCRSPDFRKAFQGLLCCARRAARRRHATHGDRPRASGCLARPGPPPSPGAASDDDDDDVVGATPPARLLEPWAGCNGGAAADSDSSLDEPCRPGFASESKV
# [3] = biological target: Muscarinic acetylcholine receptor M3 (Homo sapiens) (UniProt P20309); conditions: Compound concentration 10.0 uM
# Muscarinic acetylcholine receptor M3 (Homo sapiens), sequence (P20309 whole entry, looked up): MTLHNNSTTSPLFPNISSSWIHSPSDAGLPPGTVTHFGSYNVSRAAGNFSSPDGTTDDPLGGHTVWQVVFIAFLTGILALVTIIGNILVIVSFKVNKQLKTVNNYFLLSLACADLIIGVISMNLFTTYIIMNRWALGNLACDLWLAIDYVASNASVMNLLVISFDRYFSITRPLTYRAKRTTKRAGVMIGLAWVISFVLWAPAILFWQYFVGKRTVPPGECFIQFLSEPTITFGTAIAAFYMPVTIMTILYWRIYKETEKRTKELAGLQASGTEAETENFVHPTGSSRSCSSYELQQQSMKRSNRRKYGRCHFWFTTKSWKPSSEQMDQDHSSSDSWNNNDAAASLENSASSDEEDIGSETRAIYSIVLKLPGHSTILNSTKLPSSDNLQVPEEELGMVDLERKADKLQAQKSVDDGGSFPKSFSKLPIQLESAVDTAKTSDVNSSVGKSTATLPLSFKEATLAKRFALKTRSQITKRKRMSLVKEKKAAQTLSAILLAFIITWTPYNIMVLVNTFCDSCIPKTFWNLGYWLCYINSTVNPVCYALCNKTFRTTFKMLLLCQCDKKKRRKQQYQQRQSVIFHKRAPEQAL
# [4] = biological target: Dual specificity protein kinase CLK1 (Homo sapiens) (UniProt P49759); conditions: Compound concentration 1000.0 nM
# Dual specificity protein kinase CLK1 (Homo sapiens), sequence (P49759 whole entry, looked up): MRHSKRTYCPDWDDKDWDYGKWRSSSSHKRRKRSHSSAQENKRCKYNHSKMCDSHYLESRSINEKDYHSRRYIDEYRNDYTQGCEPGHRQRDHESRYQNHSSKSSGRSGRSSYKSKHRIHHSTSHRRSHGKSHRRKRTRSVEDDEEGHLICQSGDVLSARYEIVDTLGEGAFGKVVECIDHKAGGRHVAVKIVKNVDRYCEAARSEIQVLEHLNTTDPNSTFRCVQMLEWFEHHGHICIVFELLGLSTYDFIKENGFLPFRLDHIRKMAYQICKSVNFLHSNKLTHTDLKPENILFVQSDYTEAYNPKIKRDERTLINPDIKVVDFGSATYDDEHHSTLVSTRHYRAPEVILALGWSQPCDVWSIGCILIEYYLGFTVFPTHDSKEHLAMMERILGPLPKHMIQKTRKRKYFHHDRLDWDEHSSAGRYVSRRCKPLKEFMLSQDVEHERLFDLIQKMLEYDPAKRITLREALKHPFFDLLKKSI
# [5] = tested on: Leucine-rich repeat serine/threonine-protein kinase 2 (Homo sapiens), Q5S007 [G2019S]; conditions: Compound concentration 1000.0 nM
# [6] = biological target: T2, Tyrosine-protein kinase TXK (Homo sapiens) (UniProt P42681); conditions: Compound concentration 1000.0 nM
# T2 sequence (whole entry): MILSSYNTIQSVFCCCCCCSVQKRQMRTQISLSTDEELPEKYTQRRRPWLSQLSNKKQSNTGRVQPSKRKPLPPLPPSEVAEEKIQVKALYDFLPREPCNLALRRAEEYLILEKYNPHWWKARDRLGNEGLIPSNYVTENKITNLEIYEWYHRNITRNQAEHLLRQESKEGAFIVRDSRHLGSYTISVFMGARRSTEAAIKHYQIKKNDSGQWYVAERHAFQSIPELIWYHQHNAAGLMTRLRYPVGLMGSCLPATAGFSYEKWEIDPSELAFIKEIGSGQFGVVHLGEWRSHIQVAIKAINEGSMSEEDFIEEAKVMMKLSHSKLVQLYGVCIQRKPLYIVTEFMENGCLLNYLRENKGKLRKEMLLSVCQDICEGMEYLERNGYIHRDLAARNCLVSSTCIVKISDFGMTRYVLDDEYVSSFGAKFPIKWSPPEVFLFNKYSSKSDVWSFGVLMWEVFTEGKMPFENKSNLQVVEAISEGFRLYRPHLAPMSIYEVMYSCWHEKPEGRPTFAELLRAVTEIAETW
# [7] = biological target: cAMP-dependent protein kinase catalytic subunit alpha (Homo sapiens) (UniProt P17612); conditions: Compound concentration 1000.0 nM
# [8] = tested on: Receptor-type tyrosine-protein kinase FLT3 (Homo sapiens), P36888 [D835V]; conditions: Compound concentration 1000.0 nM
# [9] = biological target: Dual specificity mitogen-activated protein kinase kinase 3 (Homo sapiens) (UniProt P46734); conditions: Compound concentration 1000.0 nM
# Dual specificity mitogen-activated protein kinase kinase 3 (Homo sapiens), sequence (P46734 whole entry): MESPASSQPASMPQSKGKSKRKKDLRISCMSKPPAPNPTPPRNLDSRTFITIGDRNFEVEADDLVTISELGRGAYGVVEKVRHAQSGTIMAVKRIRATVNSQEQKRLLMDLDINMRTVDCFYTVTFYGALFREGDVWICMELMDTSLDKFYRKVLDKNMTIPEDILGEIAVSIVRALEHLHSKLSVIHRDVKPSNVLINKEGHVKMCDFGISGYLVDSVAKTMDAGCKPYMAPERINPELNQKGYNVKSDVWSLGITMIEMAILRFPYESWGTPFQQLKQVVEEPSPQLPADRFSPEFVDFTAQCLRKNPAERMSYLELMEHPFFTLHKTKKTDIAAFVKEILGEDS
# [10] = tested on: Receptor-type tyrosine-protein kinase FLT3 (Homo sapiens), P36888 [D835Y]; conditions: Compound concentration 1000.0 nM
# [11] = tested on: Mast/stem cell growth factor receptor Kit (Homo sapiens), P10721 [D816V]; conditions: Compound concentration 1000.0 nM
# Mast/stem cell growth factor receptor Kit (Homo sapiens), P10721 [D816V], sequence (P10721 whole entry D816V): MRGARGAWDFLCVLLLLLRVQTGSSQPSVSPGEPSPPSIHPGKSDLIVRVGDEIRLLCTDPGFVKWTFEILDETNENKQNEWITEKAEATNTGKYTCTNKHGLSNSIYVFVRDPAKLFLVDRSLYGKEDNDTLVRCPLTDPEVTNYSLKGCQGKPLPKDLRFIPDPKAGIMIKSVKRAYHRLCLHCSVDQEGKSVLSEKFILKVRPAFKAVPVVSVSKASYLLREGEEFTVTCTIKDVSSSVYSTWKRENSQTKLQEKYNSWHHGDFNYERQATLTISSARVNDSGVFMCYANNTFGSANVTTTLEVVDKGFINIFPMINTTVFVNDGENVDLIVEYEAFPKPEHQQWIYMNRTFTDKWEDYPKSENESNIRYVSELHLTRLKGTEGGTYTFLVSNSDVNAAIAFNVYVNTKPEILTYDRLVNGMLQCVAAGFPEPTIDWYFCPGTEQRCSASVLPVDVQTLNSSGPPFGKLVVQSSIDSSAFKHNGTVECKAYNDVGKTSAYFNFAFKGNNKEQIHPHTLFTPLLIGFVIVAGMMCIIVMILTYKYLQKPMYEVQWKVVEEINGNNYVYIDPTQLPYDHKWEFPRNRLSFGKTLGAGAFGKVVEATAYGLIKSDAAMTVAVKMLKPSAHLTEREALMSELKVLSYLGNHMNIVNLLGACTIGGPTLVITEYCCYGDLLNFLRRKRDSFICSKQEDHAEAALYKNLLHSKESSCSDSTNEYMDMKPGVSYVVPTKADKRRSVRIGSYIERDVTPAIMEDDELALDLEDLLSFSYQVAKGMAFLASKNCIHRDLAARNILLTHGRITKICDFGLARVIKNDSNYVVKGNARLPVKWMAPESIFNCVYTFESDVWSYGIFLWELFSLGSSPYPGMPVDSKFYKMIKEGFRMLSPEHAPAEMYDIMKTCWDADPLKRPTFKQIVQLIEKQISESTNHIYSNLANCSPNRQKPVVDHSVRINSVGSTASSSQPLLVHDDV
# [12] = biological target: 5-hydroxytryptamine receptor 2B (Homo sapiens) (UniProt P41595); conditions: Compound concentration 10.0 uM
# [13] = biological target: Rho-associated protein kinase 2 (Homo sapiens) (UniProt O75116); conditions: Compound concentration 1000.0 nM
# [14] = biological target: Dual specificity mitogen-activated protein kinase kinase 5 (Homo sapiens) (UniProt Q13163); conditions: Compound concentration 1000.0 nM
# Dual specificity mitogen-activated protein kinase kinase 5 (Homo sapiens), sequence (Q13163 whole entry): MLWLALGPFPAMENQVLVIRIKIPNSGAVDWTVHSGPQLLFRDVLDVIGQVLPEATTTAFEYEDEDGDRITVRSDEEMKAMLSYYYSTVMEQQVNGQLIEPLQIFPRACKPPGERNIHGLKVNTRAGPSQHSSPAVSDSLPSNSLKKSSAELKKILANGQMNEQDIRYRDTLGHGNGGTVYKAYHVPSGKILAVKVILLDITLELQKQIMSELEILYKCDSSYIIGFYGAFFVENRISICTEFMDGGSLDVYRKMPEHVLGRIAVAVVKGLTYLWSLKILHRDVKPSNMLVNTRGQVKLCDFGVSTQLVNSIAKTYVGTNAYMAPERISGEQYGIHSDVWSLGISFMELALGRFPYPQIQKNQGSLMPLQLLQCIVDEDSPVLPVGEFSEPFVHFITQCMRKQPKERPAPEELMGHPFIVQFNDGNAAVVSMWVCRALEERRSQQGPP
# [15] = biological target: Tyrosine-protein kinase ABL1 (Homo sapiens) (UniProt P00519); conditions: Compound concentration 1000.0 nM
# [16] = biological target: Alpha-2C adrenergic receptor (Homo sapiens) (UniProt P18825); conditions: Compound concentration 10.0 uM
# Alpha-2C adrenergic receptor (Homo sapiens), sequence (P18825 whole entry): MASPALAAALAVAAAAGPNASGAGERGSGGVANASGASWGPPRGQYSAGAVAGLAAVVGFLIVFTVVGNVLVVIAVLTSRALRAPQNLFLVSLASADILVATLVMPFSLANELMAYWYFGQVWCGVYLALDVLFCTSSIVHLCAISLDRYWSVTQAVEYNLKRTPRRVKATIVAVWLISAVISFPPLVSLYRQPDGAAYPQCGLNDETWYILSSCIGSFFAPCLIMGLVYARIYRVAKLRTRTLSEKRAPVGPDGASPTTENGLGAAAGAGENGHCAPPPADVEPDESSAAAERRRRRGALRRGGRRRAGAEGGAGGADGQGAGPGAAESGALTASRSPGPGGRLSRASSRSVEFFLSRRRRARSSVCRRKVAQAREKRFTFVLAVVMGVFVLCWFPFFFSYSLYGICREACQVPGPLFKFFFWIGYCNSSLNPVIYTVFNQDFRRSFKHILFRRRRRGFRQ
# [17] = biological target: Fibroblast growth factor receptor 1 (Homo sapiens) (UniProt P11362); conditions: Compound concentration 1000.0 nM
# Fibroblast growth factor receptor 1 (Homo sapiens), sequence (P11362 22-822 limits assumed): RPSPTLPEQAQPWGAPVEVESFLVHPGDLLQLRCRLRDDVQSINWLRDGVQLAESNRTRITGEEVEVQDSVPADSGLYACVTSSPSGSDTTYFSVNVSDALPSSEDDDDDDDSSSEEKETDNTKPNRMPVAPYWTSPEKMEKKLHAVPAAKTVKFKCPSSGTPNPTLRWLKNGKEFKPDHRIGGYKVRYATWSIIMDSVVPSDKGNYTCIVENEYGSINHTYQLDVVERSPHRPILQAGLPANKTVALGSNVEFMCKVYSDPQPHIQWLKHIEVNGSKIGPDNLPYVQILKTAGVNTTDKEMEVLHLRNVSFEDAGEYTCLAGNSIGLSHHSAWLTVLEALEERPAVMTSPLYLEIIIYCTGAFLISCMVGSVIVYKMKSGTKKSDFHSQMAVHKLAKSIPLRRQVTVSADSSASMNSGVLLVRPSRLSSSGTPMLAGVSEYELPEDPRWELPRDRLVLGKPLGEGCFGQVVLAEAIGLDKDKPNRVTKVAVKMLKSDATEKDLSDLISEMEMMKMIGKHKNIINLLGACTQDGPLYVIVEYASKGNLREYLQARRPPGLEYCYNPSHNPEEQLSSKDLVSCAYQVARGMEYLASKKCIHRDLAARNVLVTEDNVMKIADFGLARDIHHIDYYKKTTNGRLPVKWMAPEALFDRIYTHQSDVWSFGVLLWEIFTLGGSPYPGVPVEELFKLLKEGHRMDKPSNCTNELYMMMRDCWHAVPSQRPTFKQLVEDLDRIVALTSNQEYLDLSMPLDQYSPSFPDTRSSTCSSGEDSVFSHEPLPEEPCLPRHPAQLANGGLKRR
# [18] = biological target: Cyclin-dependent kinase 4 (Homo sapiens) (UniProt P11802); conditions: Compound concentration 1000.0 nM
# Cyclin-dependent kinase 4 (Homo sapiens), sequence (P11802 whole entry): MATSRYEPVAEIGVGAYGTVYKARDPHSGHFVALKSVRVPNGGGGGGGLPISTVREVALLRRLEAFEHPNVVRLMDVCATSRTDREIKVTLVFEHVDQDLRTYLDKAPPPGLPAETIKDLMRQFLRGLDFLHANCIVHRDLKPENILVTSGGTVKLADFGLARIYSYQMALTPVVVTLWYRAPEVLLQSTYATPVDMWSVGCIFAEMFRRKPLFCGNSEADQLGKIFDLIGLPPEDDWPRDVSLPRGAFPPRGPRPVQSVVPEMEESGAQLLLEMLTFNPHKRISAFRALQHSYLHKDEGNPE
# [19] = biological target: T3, Serine/threonine-protein kinase 3 (Homo sapiens) (UniProt Q13188); conditions: Compound concentration 1000.0 nM
# T3 sequence (whole entry): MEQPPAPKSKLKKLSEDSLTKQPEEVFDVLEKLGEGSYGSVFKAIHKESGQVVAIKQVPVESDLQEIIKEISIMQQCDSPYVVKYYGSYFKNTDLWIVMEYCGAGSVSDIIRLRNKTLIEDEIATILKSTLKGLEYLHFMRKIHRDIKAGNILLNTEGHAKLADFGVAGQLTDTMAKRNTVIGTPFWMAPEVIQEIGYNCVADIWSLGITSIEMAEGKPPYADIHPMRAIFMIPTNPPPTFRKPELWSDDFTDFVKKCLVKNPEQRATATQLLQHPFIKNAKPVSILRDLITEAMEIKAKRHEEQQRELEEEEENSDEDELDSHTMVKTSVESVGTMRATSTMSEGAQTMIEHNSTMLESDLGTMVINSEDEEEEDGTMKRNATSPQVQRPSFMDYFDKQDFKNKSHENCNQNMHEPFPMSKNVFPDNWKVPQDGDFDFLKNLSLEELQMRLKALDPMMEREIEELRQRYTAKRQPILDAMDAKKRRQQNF
Compound,residual activity [1] [%],inhibition [2] [%],inhibition [3] [%],residual activity [4] [%],residual activity [5] [%],residual activity [6] [%],residual activity [7] [%],residual activity [8] [%],residual activity [9] [%],residual activity [10] [%],residual activity [11] [%],inhibition [12] [%],residual activity [13] [%],residual activity [14] [%],residual activity [15] [%],inhibition [16] [%],residual activity [17] [%],residual activity [18] [%],residual activity [19] [%]
CCc1ccccc1C(=O)Nc1n[nH]c2c(C)c(F)c(C3C(C#N)=C(C)N(C)C(C)=C3C#N)cc12 [BAY-3827],92,1.59,22.5,84,100,84,89,3.2,97,2.5,55,32.5,100,100,78,10,97,100,80
CC1=C(C#N)C(c2ccc3c(c2)c(NC(=O)c2ccccc2C)nn3C)C(C#N)=C(C)N1 [BAY-974],74,-7.79,9.49,87,100,100,77,90,91,82,85,11.4,93,79,86,10.2,97,100,100
